According to patent US9221822B2, “Thiazolopyrimidine modulators as immunosuppressive agents” (Katholieke Universiteit Leuven, K.U.Leuven R&D, priority 2009, dated 2015):

System: Human peripheral blood mononuclear cells (PBMCs) as Responder cells, RPMI 1788 Stimulator cells
Test: Mixed Lymphocyte Reaction (MLR) test
Assay type: cell-based
Details: Homo sapiens, RPMI-1788, lowest concentration giving 50% inhibition of the MLR; 6 days coculture, 3H-thymidine incorporation
How it was run: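 Proliferation was read as cpm after a 1 μCi ^3H-thymidine pulse on day 5 and harvest 18 h later, then expressed as % inhibition relative to an MLR without compound. The 6-day triplicate cocultures combined 0.12×10^6 Ficoll-isolated human PBMCs with 0.045×10^6 mitomycin C-inactivated RPMI 1788 cells in RPMI 1640 with 10% FCS.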
`Nc1nc(N2CCN(C(=O)COc3ccc(Cl)cc3)CC2)c2nc(-c3cccnc3)sc2n1` [Example 121a, 5-amino-7-[4-(4-chlorophenoxyacetyl)piperazin-1-yl]-2-(pyridine-3-yl)thiazolo[5,4-d]pyrimidine] gave an IC50 of 0.05 µM. Work on `Nc1nc(N2CCN(C(=O)COc3ccc(F)cc3)CC2)c2nc(-c3cccnc3)sc2n1` [Example 272, 1-(4-(5-amino-2-(pyridin-3-yl)thiazolo[5,4-d]pyrimidin-7-yl)piperazin-1-yl)-2-(4-fluorophenoxy)ethanone] yielded an IC50 of 0.012 µM. With `C[S+]([O-])c1nc2c(N3CCN(C(=O)COc4ccc(Cl)cc4)CC3)nc(N)nc2s1` (centres unmarked) [Example 126, 5-amino-7-[4-(4-chlorophenoxyacetyl)piperazin-1-yl]-2-methylsulfinyl-thiazolo[5,4-d]pyrimidine] the IC50 was 2.65 µM. In the case of `Nc1nc(N2CCN(C(=O)COc3ccc(O)cc3)CC2)c2nc(CCc3ccc(F)cc3)sc2n1` [Example 224, 1-(4-(5-amino-2-(4-fluorophenethyl)thiazolo[5,4-d]pyrimidin-7-yl)piperazin-1-yl)-2-(4-hydroxyphenoxy)ethanone], the IC50 is reported as 1.1 µM. For `COc1ccc(OCC(=O)N2CCN(c3nc(N)nc4sc(CCCc5ccc(F)cc5)nc34)CC2)cc1` [Example 291, 1-(4-(5-amino-2-(3-(4-fluorophenyl)propyl)thiazolo[5,4-d]pyrimidin-7-yl)piperazin-1-yl)-2-(4-methoxyphenoxy)ethanone], the IC50 was 1.11 µM. In the case of `COc1ccc(CCc2nc3c(N4CCN(C(=O)COc5ccc(Br)cc5)CC4)nc(N)nc3s2)cc1OC` [Example 256, 1-(4-(5-amino-2-(3,4-dimethoxyphenethyl)thiazolo[5,4-d]pyrimidin-7-yl)piperazin-1-yl)-2-(4-bromophenoxy)ethanone], the IC50 is reported as 0.74 µM. `Nc1nc(N2CCN(C(=O)COc3ccc(Cl)cc3)CC2)c2cc(-c3ccccc3)sc2n1` [Example 329, 1-(4-(2-amino-6-phenylthieno[2,3-d]pyrimidin-4-yl)piperazin-1-yl)-2-(4-chlorophenoxy)ethanone] showed an IC50 of 0.33 µM. With `Nc1nc(N2CCN(C(=O)CCc3ccccc3)CC2)c2nc(CCc3ccc(F)cc3)sc2n1` [Example 136, 5-amino-2-[2-(4-fluorophenyl)ethyl]-7-[4-(3-phenylpropionyl)piperazin-1-yl]-thiazolo[5,4-d]pyrimidine] the IC50 was greater than 10 µM. In the case of `Nc1nc(N2CCN(C(=O)COc3ccc(Cl)cc3)CC2)c2nc(SCCc3ccccc3)[nH]c2n1` [Example 427, 1-(4-(2-amino-8-(phenethylthio)-9H-purin-6-yl)piperazin-1-yl)-2-(4-chlorophenoxy)ethanone], the IC50 is reported as greater than 10 µM. With `Cc1cccc(OCC(=O)N2CCN(c3nc(N)nc4sc(-c5cccnc5)nc34)CC2)c1` [Example 275, 1-(4-(5-amino-2-(pyridin-3-yl)thiazolo[5,4-d]pyrimidin-7-yl)piperazin-1-yl)-2-(m-tolyloxy)ethanone] the IC50 was 0.003 µM. For `Nc1nc(N2CCN(C(=O)COc3ccc(Cl)cc3)CC2)c2nc(-c3ccccc3)sc2n1` [Example 215, 1-(4-(5-amino-2-phenylthiazolo[5,4-d]pyrimidin-7-yl)piperazin-1-yl)-2-(4-chlorophenoxy)ethanone], the IC50 was 0.116 µM. `Nc1nc(N2CCN(C(=O)COc3cccc(Cl)c3)CC2)c2nc(-c3ccc(F)cc3)sc2n1` [Example 214, 1-(4-(5-amino-2-(4-fluorophenyl)thiazolo[5,4-d]pyrimidin-7-yl)piperazin-1-yl)-2-(3-chlorophenoxy)ethanone] showed an IC50 of 0.121 µM. `COc1ccc(OCC(=O)N2CCN(c3nc(N)nc4sc(CCc5ccc(C)cc5)nc34)CC2)cc1` [Example 259, 1-(4-(5-amino-2-(4-methylphenethyl)thiazolo[5,4-d]pyrimidin-7-yl)piperazin-1-yl)-2-(4-methoxyphenoxy)ethanone] gave an IC50 of 0.96 µM. In the case of `Nc1nc(N2CCN(C(=O)Cc3ccc(Cl)cc3)CC2)c2nc(CCc3cccs3)sc2n1` [Example 155, 5-amino-2-(2-thiophen-2-ylethyl)-7-(4-[2-(4-chloro-phenyl)acetyl]piperazin-1-yl)thiazolo[5,4-d]pyrimidine], the IC50 is reported as greater than 10 µM. Molecule `COc1ccccc1NC(=O)N1CCN(c2nc(N)nc3sc(-c4ccc(F)cc4)nc23)CC1` [Example 219, 4-(5-amino-2-(4-fluorophenyl)thiazolo[5,4-d]pyrimidin-7-yl)-N-(2-methoxyphenyl)piperazine-1-carboxamide] has an IC50 of 0.323 µM. Molecule `Nc1nc(N2CCN(C(=O)COc3ccc(Cl)cc3)CC2)c2nc(CCCc3ccc(F)cc3)sc2n1` [Example 290, 1-(4-(5-amino-2-(3-(4-fluorophenyl)propyl)thiazolo[5,4-d]pyrimidin-7-yl)piperazin-1-yl)-2-(4-chlorophenoxy)ethanone] has an IC50 of 0.96 µM. With `Nc1nc(N2CCN(C(=O)COc3ccc(Cl)cc3)CC2)c2nc(CCc3ccc(F)cc3)oc2n1` [Example 172, 1-(4-(5-amino-2-(4-fluorophenethyl)oxazolo[5,4-d]pyrimidin-7-yl)piperazin-1-yl)-2-(4-chlorophenoxy)ethanone] the IC50 was 0.8 µM. Work on `Nc1nc(N2CCN(C(=O)COc3ccccc3)CC2)c2cc(-c3ccccc3)sc2n1` [Example 332, 1-(4-(2-amino-6-phenylthieno[2,3-d]pyrimidin-4-yl)piperazin-1-yl)-2-phenoxyethanone] yielded an IC50 of 0.78 µM. `Nc1nc(N2CCN(c3ccc(F)cc3)CC2)c2nc(-c3ccc(F)cc3)[nH]c2n1` [Example 415, 8-(4-fluorophenyl)-6-(4-(4-fluorophenyl)piperazin-1-yl)-9H-purin-2-amine] showed an IC50 of 4.16 µM. `COC(=O)c1ccc(OCC(=O)N2CCN(c3nc(N)nc4sc(CCc5ccc(F)cc5)nc34)CC2)cc1` [Example 225, methyl 4-(2-(4-(5-amino-2-(4-fluorophenethyl)thiazolo[5,4-d]pyrimidin-7-yl)piperazin-1-yl)-2-oxoethoxy)benzoate] showed an IC50 greater than 10 µM. Molecule `Nc1nc(N2CCN(C(=O)COc3ccc(Cl)cc3)CC2)c2nc(C3(c4ccccc4)CC3)sc2n1` [Example 114, 5-amino-7-[4-(4-chlorophenoxyacetyl)piperazin-1-yl]-2-(1-phenylcyclopropyl)thiazolo[5,4-d]pyrimidine] has an IC50 of 1.56 µM. With `O=C(COc1ccc(Cl)cc1)N1CCN(c2nc(-c3ccccc3)nc3sc(-c4ccc(F)cc4)cc23)CC1` [Example 352, 2-(4-chlorophenoxy)-1-(4-(6-(4-fluorophenyl)-2-phenylthieno[2,3-d]pyrimidin-4-yl)piperazin-1-yl)ethanone] the IC50 was greater than 10 µM. Work on `Cc1cccc(NC(=O)N2CCN(c3nc(N)nc4sc(-c5ccccc5)cc34)CC2)c1` [Example 330, 4-(2-amino-6-phenylthieno[2,3-d]pyrimidin-4-yl)-N-m-tolylpiperazine-1-carboxamide] yielded an IC50 of 0.93 µM. For `Nc1nc(N2CCN(C(=O)COc3ccc(Cl)cc3)CC2)c2nc(CCc3ccc(F)cc3)sc2n1` [Example 49, 1-(4-(5-amino-2-(4-fluorophenethyl)-thiazolo[5,4-d]pyrimidin-7-yl)piperazin-1-yl)-2-(4-chlorophenoxy)ethanone], the IC50 was 4.4 µM. Molecule `Nc1nc(N2CCN(CCOc3ccccc3)CC2)c2cc(-c3ccccc3)sc2n1` [Example 337, 4-(4-(2-phenoxyethyl)piperazin-1-yl)-6-phenylthieno[2,3-d]pyrimidin-2-amine] has an IC50 of 9.64 µM. Work on `Nc1nc(N2CCN(C(=O)Cc3ccc(Cl)cc3)CC2)c2nc(CCc3ccc(F)cc3)oc2n1` [Example 194, 5-amino-2-[2-(4-fluorophenyl)ethyl]-7-(4-[2-(4-chlorophenyl)acetyl]-piperazin-1-yl)-oxazolo[5,4-d]pyrimidine] yielded an IC50 of 9.04 µM. In the case of `Nc1nc(N2CCOCC2)c2nc(-c3ccc(F)cc3)sc2n1` [Example 33, 2-(4-fluorophenyl)-7-morpholino-thiazolo[5,4-d]pyrimidin-5-amine], the IC50 is reported as greater than 10 µM. Work on `N#Cc1ccc(NC(=O)N2CCN(c3nc(N)nc4sc(CCc5ccc(F)cc5)nc34)CC2)cc1` [Example 229, 4-(5-amino-2-(4-fluorophenethyl)thiazolo[5,4-d]pyrimidin-7-yl)-N-(4-cyanophenyl)piperazine-1-carboxamide] yielded an IC50 of 2.66 µM. In the case of `COc1ccc(OCC(=O)N2CCN(c3nc(N)nc4sc(-c5ccccc5)cc34)CC2)cc1` [Example 369, 1-(4-(2-amino-6-phenylthieno[2,3-d]pyrimidin-4-yl)piperazin-1-yl)-2-(4-methoxyphenoxy)ethanone], the IC50 is reported as 0.072 µM.

System: cardiac allograft (C57BL/6 H-2b donor heart in Balb/c H-2d recipient)
Test: mouse model of cardiac allograft transplantation (graft survival)
Assay type: in vivo
Details: Example 448; 40 mg/kg by daily oral gavage until day 30; n=4
Method: Inbreed C57BL/6 H-2^b and Balb/c H-2^d female mice, 8-10 weeks old, 20-25 g, were used as donor and recipient, respectively. Heterotopic heart transplantation was performed by implanting the donor heart on the neck of recipients using conventional microsurgery techniques. Graft beating was checked daily by inspection and palpation. Cessation of beating indicated graft rejection, which was confirmed by histological examination. Housing and all experimental animal procedures were approved by the Institutional Animal Care and Research Advisory Committee of the KU Leuven.
With `Nc1nc(N2CCN(C(=O)COc3ccc(Cl)cc3)CC2)c2nc(-c3cccnc3)sc2n1` [Example 121a, 5-amino-7-[4-(4-chlorophenoxyacetyl)piperazin-1-yl]-2-(pyridine-3-yl)thiazolo[5,4-d]pyrimidine] the “grafts with continuous survival during treatment” value was 3 out of 4.

Same assay, conditions: Example 448; 40 mg/kg oral, treatment stopped day 30
With `Nc1nc(N2CCN(C(=O)COc3ccc(Cl)cc3)CC2)c2nc(-c3cccnc3)sc2n1` [Example 121a, 5-amino-7-[4-(4-chlorophenoxyacetyl)piperazin-1-yl]-2-(pyridine-3-yl)thiazolo[5,4-d]pyrimidine] the “graft beating after withdrawal of the treatment” value was “continued beating after withdrawal of the treatment (up to 60 days)”.

Same assay, conditions: Example 449; 20 mg/kg per day
With `Cc1ccc(NC(=O)N2CCN(c3nc(N)nc4sc(-c5cccnc5)nc34)CC2)cc1` [Example 222, 4-(5-amino-2-(pyridin-3-yl)thiazolo[5,4-d]pyrimidin-7-yl)-N-p-tolylpiperazine-1-carboxamide] the graft survival was “up to 13 days”.

Same assay, conditions: Example 449; 40 mg/kg per day
For `Cc1ccc(NC(=O)N2CCN(c3nc(N)nc4sc(-c5cccnc5)nc34)CC2)cc1` [Example 222, 4-(5-amino-2-(pyridin-3-yl)thiazolo[5,4-d]pyrimidin-7-yl)-N-p-tolylpiperazine-1-carboxamide], the “grafts continuously functioning after stopping the treatment on day 30” value was 3/4.

Same assay, conditions: Example 449; 40 mg/kg per day by daily gavage until day 30
For `Cc1ccc(NC(=O)N2CCN(c3nc(N)nc4sc(-c5cccnc5)nc34)CC2)cc1` [Example 222, 4-(5-amino-2-(pyridin-3-yl)thiazolo[5,4-d]pyrimidin-7-yl)-N-p-tolylpiperazine-1-carboxamide], the “grafts with continuous survival during treatment” value was 4/6.

System: not given
Test: not given
Details: not given
`CCOc1nc(N)nc2sc(-c3ccc(F)cc3)cc12` [Example 363, 4-ethoxy-6-(4-fluorophenyl)thieno[2,3-d]pyrimidin-2-amine] showed a melting point of 142 °C.
